According to patent US20110190253A1, “METHOD FOR TREATING TUBERCULOSIS” (priority 2008, published 2011):

Assays:
M. tuberculosis H37Rv = assay: minimum inhibitory concentration (MIC) in 7H9 medium at 37° C.; format: cell-based; settings: for effect of addition of clavulanate on the MIC value: absence vs presence of 2.5 μg ml^−1 clavulanate, data not shown
[1] = tested on: M. tuberculosis Erdman strain; assay: broth microdilution in 7H9 broth, 96 well plates, M. tuberculosis growth after 1 week of incubation; format: cell-based; settings: one week of incubation
[2] = tested on: M. tuberculosis in viable but nonreplicative (NRP) state; assay: Wayne model, nonreplicative (NRP2) cultures, viability by intracellular ATP and CFUs; format: cell-based; settings: for reduction of viability (intracellular ATP, CFUs): combination with clavulanate, anaerobic chamber, 1 week and 2 weeks, data not shown; for kill over a 2-week exposure time: meropenem in combination with clavulanate, metronidazole as control compound
BlaC = BlaC (Mycobacterium tuberculosis, UniProt P9WKD3); assay: rate of hydrolysis by BlaC; format: biochemical, M. tuberculosis
[3] = tested on: M. tuberculosis Erdman strain; assay: MIC against Erdman strain; format: cell-based; settings: Mycobacterium tuberculosis, read-out: MIC value
[4] = at any concentration of clavulanate (0.0.5, 1 and 2 μg/ml)

Chain of BlaC (P9WKD3 35-307): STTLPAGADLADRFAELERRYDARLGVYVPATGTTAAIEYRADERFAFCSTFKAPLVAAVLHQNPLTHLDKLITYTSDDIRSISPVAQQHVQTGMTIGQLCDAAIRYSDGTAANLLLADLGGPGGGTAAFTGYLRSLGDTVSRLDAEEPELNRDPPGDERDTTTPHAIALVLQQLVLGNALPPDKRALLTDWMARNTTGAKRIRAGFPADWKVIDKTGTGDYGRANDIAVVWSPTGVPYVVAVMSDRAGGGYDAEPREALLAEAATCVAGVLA

## CC1(C)S[C@@H]2[C@H](NC(=O)[C@H](N)c3ccccc3)C(=O)N2[C@H]1C(=O)O [ampicillin]
M. tuberculosis H37Rv
  effect of addition of clavulanate on the MIC value: only a modest effect

## CC1(C)S[C@@H]2[C@H](NC(=O)[C@H](N)c3ccc(O)cc3)C(=O)N2[C@H]1C(=O)O [amoxicillin]
[1]; 4 μg/ml of amoxicillin and 1-2 μg/ml clavulanate
  inhibition of M. tuberculosis growth: Modest inhibition
M. tuberculosis H37Rv
  effect of addition of clavulanate on the MIC value: only a modest effect
[2]
  reduction of viability (intracellular ATP, CFUs): effective in reducing viability

## Cc1ncc([N+](=O)[O-])n1CCO [metronidazole]
[2]
  kill over a 2-week exposure time: comparable

## C[C@@H](O)[C@H]1C(=O)N2C(C(=O)O)=C(S[C@@H]3CN[C@H](C(=O)N(C)C)C3)[C@H](C)[C@H]12 [meropenem]
[1]; 1 μg/ml meropenem in combination with 1 μg/ml clavulanate
  M. tuberculosis growth: No M. tuberculosis growth
M. tuberculosis H37Rv; 7H9 medium, 37° C., 2.5 μg ml^−1 clavulanate
  MIC value in the presence of clavulanate: 0.32 µg/mL
M. tuberculosis H37Rv; Mycobacterium tuberculosis, with clavulanate, as restated
  MIC: ≤ 1 µg/mL
BlaC
  rate of hydrolysis by BlaC: low
[2]
  reduction of viability (intracellular ATP, CFUs): more pronounced
  kill over a 2-week exposure time: more than a log kill
[3]
  MIC: ≤ 1 µg/mL

## CCN1CCN(C(=O)N[C@@H](C(=O)N[C@@H]2C(=O)N3[C@@H]2SC(C)(C)[C@@H]3C(=O)O)c2ccccc2)C(=O)C1=O [piperacillin]
[1]; [4]
  inhibition of M. tuberculosis growth: no inhibition

## CO/N=C(\C(=O)N[C@@H]1C(=O)N2C(C(=O)O)=C(COC(N)=O)CS[C@H]12)c1ccco1 [cefuroxime]
[1]; 2 μg/ml cefuroxime and 2 μg/ml clavulanate
  inhibition of M. tuberculosis growth: Modest inhibition
[2]
  reduction of viability (intracellular ATP, CFUs): effective in reducing viability

## CC(C)(O/N=C(\C(=O)N[C@@H]1C(=O)N2C(C(=O)[O-])=C(C[n+]3ccccc3)CS[C@H]12)c1csc(N)n1)C(=O)O [ceftazidime]
[1]; [4]
  inhibition of M. tuberculosis growth: no inhibition
